{
  "source": "patent US20070184110A1",
  "about": "“Dipyridamole extended-release formulations and process for preparing same” (priority 2006, published 2007)",
  "origin": "cited, not measured here",
  "conditions": "above a pH of 4",
  "data": [
    {"smiles": "OCCN(CCO)c1nc(N2CCCCC2)c2nc(N(CCO)CCO)nc(N3CCCCC3)c2n1", "note": "[Dipyridamole, 2,6-bis-(diethanolamino)-4,8-dipiperidino-(5,4-d)-pyrimidine]", "values": [
      {"measurement": "solubility in water", "result": "practically insoluble"}
    ]}
  ]
}
